Results as given in patent US10874749B2, “Gene therapies for neurodegenerative disorders targeting ganglioside biosynthetic pathways” (priority 2015, dated 2020).

Tests used:
DA uptake = assay: Striatal uptake of tritiated dopamine (3H-DA) in striatal homogenates; type: in vivo, mouse; conditions: 3 minutes
Description: Whole striatal homogenates were exposed to [^3H] DA for 3 minutes in the presence or absence of mazindol to examine the influence of sialidase treatment on DA uptake.
In mouse studies as depicted in FIG. 4, striatal uptake of tritiated dopamine (^3H-DA) was examined. […] Striatal homogenates were incubated with ^3H-DA in the presence (non-specific) or absence (total) of the DA uptake inhibitor mazindol (Maz).

DAergic hES cells = assay: Rescue of DAergic hES cells from MPP+ toxicity (TH immunopositive cell count); type: cell-based, human
Description: Human stem cells were differentiated into a dopaminergic (DAergic) phenotype using a well characterized method (Iacovitti et al. 2007 as modified in Cai et al., 2013).
hES cells were plated onto 24 well plates. Cells were pretreated with sialidase, GM1 or standard media for 2 hrs and were then exposed to the mitochondrial toxin MPP^+. Twenty-four hours later, media containing toxin was removed and fresh media containing the appropriate concentration of rescue agent was added. Two days later, cells were fixed, processed for tyrosine hydroxylase (TH) immunocytochemistry and the number of TH immunopositive cells were counted.
FIGS. 3A and 3B depict the protection/rescue of human embryonic stem cells from MPP^+ toxicity. A) The number of tyrosine hydroxylase immunopositive (TH^+) cells was reduced as a result of MPP^+ treatment.
Accordingly, the examples and studies identify that human embryonic stem (hES) cells, when differentiated into dopaminergic neurons, are susceptible to MPP^+ toxicity. However, there are mechanisms that exist that can mitigate the effects of MPP^+ toxicity. Indeed, MPP^+ toxicity in hES cells is mitigated by both GM1 and 0.005 U/mL VCS. Therefore, treatment with a sialidase, such as sialidase Neu3 that increases the amounts of GM1 expression in the striatum and the substantia nigra will provide neuroprotective effects.

PD patients = assay: Randomized, controlled, delayed start clinical study of GM1 in PD patients; type: in vivo, human
Source text: The more highly expressed gangliosides in the brain are GM1, GD1a, GD1b, GT1b, and GD3. […] Although GM1 administration has promise as a treatment for PD, it is difficult to source, is currently available only as a natural product extracted and purified from animal brains, and has low ability to cross the blood brain barrier.
The mean (±SE) change from baseline in Early-start (randomized to receive GM1 at start of study) and Delayed-start (randomized to receive placebo at start of study) study subjects and in a standard-of-care comparison group (no interventions). The dashed vertical line at week 24 indicates the end of study Phase I. After that, all subjects received GM1. The dashed vertical line at week 120 indicates the end of study Phase II. The horizontal dashed line indicates baseline level. An increase of score indicates symptom worsening; a decrease in score indicates symptom improvement. *=p<0.0001 Early-start vs. Delayed-start; ^=p<0.05 Early-start vs. Delayed-start

YAC128 mice = conditions: cited from earlier work
[1] = cited from earlier work
[2] = hES cells differentiated to dopaminergic phenotype

Compound | total DA uptake (3H-DA) (DA uptake) | number of tyrosine hydroxylase immunopositive (TH+) cells (DAergic hES cells; 5 and 10 μM doses of MPP+, pretreated 2 hrs) | protection/rescue from MPP+ toxicity (TH+ cells) (DAergic hES cells; [2]) | change from baseline in score, early effect (PD patients; Early-start vs Delayed-start, Phase I to week 24) | change from baseline in score, later effect (PD patients; Phase II to week 120) | clinical benefit and symptom progression (PD patients; extended GM1 use up to 120 weeks) | improving motor symptoms vs placebo (PD patients; first 24 weeks of the study) | striatal dopamine levels (YAC128 mice; HD models, intracranial administration) | mHtt phosphorylation (YAC128 mice; YAC128 mice, infusion pump) | time to normalization of motor function from start of treatment (YAC128 mice; infusion pump, YAC128 mice symptomatic for motor impairment) | oral bioavailability [1] | bioavailability/penetrance across the blood brain barrier ([1]; systemically administered) | protection/rescue from MPP+ toxicity (TH+ cells) (DAergic hES cells; 0.005 U/mL VCS)
OC1(c2ccc(Cl)cc2)c2ccccc2C2=NCCN21 (centres unmarked) [Mazindol, mazindol] | effectively blocked |  |  |  |  |  |  |  |  |  |  |  | 
GM1 |  | prevented cell loss | mitigated | early symptomatic effect | later disease modifying effect | sustained clinical benefit and lower than expected symptom progression | superior to placebo | normalization | phosphorylation of mHtt at serine residues 13 and 16 | ≤ 2 weeks | no oral bioavailability | low | 
VCS: Sialidase V purified from Vibrio cholerae; cleaves a2-8 linkages and terminal a2-3 linkages |  |  | protect/rescue cells from MPP^+ toxicity |  |  |  |  |  |  |  |  |  | mitigated
